IC50 data for one compound are collected here from patent publication US8906953B2, “Pyrrolidine substitute flavones for the treatment of inflammatory disorders” (Piramal Enterprises Limited, priority 2010, dated 2014).

pIC50: −log10 of the molar value. Read-outs that look alike come from different tables or passages of the source.

Usually pIC50 stands for −log10 of the IC50, conventionally taken in molar units.

Assay type in all cases: cell-based
One assay relates to TNF-α. Nature of the assay: LPS-induced TNF-α release from hPBMCs (ELISA). To be noted: Homo sapiens. How it is done: Cytokine production by lipopolysaccharides (LPS) in hPBMCs (human peripheral blood mononuclear cells) was measured as in reference, Physiol. Res. 2003, 52, 593-598, the disclosure of which is incorporated by reference for the teaching of the assay. Blood was collected from healthy donors into Potassium EDTA vacutainer tubes (BID vacutainer). The PBMC were isolated using gradient centrifugation in Histopaque-1077 solution (Sigma). Isolated PBMC were suspended in RPMI 1640 (Rosewell Park Memorial Institute) culture medium (Sigma-Aldrich Fine Chemicals, USA) containing 10% fetal bovine serum (FBS) (JRH, USA), 100 U/mL penicillin (Sigma Chemical Co. St Louis, Mo., USA) and 100 μg/mL streptomycin (Sigma Chemical Co. St Louis, Mo.). The cell concentration was adjusted to 1×10^6 cells/mL. The viability as determined by trypan blue dye exclusion was uniform Ly≧98%. The cell suspension (100 μL) was added to the wells of a 96-well culture plate. Following cell plating, 79 μL of the culture medium and 1 μL of various concentrations of test compounds (compounds of formula 1) (final concentration 0.001, 0.003, 0.005, 0.01, 0.025, 0.03, 0.05, 0.1, 0.25, 0.3 and 1 μM) dissolved in DMSO (dimethyl sulfoxide, Sigma, Mo., USA) were added to the cells. The final concentration of DMSO was adjusted to 0.5%. The vehicle (0.5% DMSO) was used as control. […] The plates were incubated for 30 minutes at 37° C. in an atmosphere of 5% CO2. Finally, 20 μL (10 μg/mL) per well of LPS, (Escherchia coli 0127:B8, Sigma Chemical Co., St. Louis, Mo.) was added to the wells of the incubated plates, for a final concentration of 1 μg/mL. The plates were incubated at 37° C. for 5 hours in an atmosphere of 5% CO2. […] Supernatants were harvested and assayed for TNF-α, IL-1β, IL-6 and IL-8 by ELISA as described by the manufacturer. (OptiEIA ELISA sets, BD Biosciences, Pharmingen). The 50% inhibitory concentration (IC50) values were calculated by a nonlinear regression method using GraphPad software (Prism 3.03).
(In general: ELISA stands for enzyme-linked immunosorbent assay.)

Assay [1] concerns IL-8. Kind of assay: LPS-induced IL-8 release from hPBMCs (ELISA). To be noted: Homo sapiens. The method, then: Cytokine production by lipopolysaccharides (LPS) in hPBMCs (human peripheral blood mononuclear cells) was measured as in reference, Physiol. Res. 2003, 52, 593-598, the disclosure of which is incorporated by reference for the teaching of the assay. Blood was collected from healthy donors into Potassium EDTA vacutainer tubes (BID vacutainer). The PBMC were isolated using gradient centrifugation in Histopaque-1077 solution (Sigma). Isolated PBMC were suspended in RPMI 1640 (Rosewell Park Memorial Institute) culture medium (Sigma-Aldrich Fine Chemicals, USA) containing 10% fetal bovine serum (FBS) (JRH, USA), 100 U/mL penicillin (Sigma Chemical Co. St Louis, Mo., USA) and 100 μg/mL streptomycin (Sigma Chemical Co. St Louis, Mo.). The cell concentration was adjusted to 1×10^6 cells/mL. The viability as determined by trypan blue dye exclusion was uniform Ly≧98%. The cell suspension (100 μL) was added to the wells of a 96-well culture plate. Following cell plating, 79 μL of the culture medium and 1 μL of various concentrations of test compounds (compounds of formula 1) (final concentration 0.001, 0.003, 0.005, 0.01, 0.025, 0.03, 0.05, 0.1, 0.25, 0.3 and 1 μM) dissolved in DMSO (dimethyl sulfoxide, Sigma, Mo., USA) were added to the cells. The final concentration of DMSO was adjusted to 0.5%. The vehicle (0.5% DMSO) was used as control. […]

Assay [2] relates to IL-8. Kind of assay: Spontaneous IL-8 release from synovial cells of RA patients. Conditions: Homo sapiens, Synovial cell, freshly isolated synovial cells from RA patients, 16 hours. The method, then: Cytokine production in synovial cells obtained from rheumatoid arthritis patients undergoing knee replacement surgery, was measured as per the method described in reference, Lancet, 1989, 29, 244-247, the disclosure of which is incorporated herein by reference for the teaching of the assay. The synovial membrane tissue was digested by incubating at 37° C. for 3 hours in an atmosphere of 5% CO2, in Roswell Park Memorial Institute (RPMI) medium containing penicillin-G (100 U/mL), streptomycin (100 μg/mL), amphotericin B (50 ng/mL) (GIBCO), 1.33 mg/mL collagenase Type I (Worthington Biochemical Corporation, New Jersey, USA), 0.5 μg/mL DNAse Type I (SIGMA) and 8.33 U/mL heparin (Biological E. Limited, India). The digested tissue was then filtered through a membrane (mesh size 70 micron) (SIGMA), the cells were washed 3 times and suspended in complete medium (RPMI supplemented with 5% FCS and 5% human serum). The cell concentration was adjusted to 1×10^6 cells/mL. The viability as determined by trypan blue dye exclusion was uniform Ly≧98%. The cell suspension (100 μL) was added to the wells of a 96-well culture plate. Following cell plating, 100 μL of the culture medium and 1 μL of various concentrations of the compound of example 3 (final concentration 0.001, 0.003, 0.01, 0.03, 0.1, 0.3, 1 and 3 μM) dissolved in DMSO (dimethylsulfoxide, Sigma, Mo., USA) were added to the cells. […]

As to `CN1CC[C@@H](c2c(O)cc(O)c3c(=O)cc(-c4ccc(C(F)(F)F)cc4Cl)oc23)[C@@H]1CO.Cl` [Compound of example 3, (+)-trans-2-(2-Chloro-4-trifluoromethyl-phenyl)-5,7-dihydroxy-8-(2-hydroxymethyl-1-methyl-pyrrolidin-3-yl)-chromen-4-one hydrochloride], the pIC50 in the assay on TNF-α (LPS-induced release from hPBMCs (Table 1A), read-out: IC50 TNF-α) was 6.00; in the assay with TNF-α (LPS-stimulated hPBMCs, 5 hours, read-out: Activity (TNF-α) IC50), 6.00; with IL-8 [1], 5.89; in the assay with IL-8 [2], 5.46.
